18 compounds from PubChem BioAssay (NCI) can be followed below.

Among the test systems are TK-10 renal; KM12 colon; A549 NSCLC; U251 CNS; OVCAR-8 ovarian; OVCAR-5 ovarian; HCT-116 colon; UO-31 renal; RXF 393 renal.
Holding throughout (assay): NCI tumour cell line growth inhibition, 48 h

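1) Cells in 96-well plates. 2) Compound, 48 h, 5 concentrations. 3) Linear interpolation between surrounding doses. 4) Unreached endpoint = highest concentration. Abbreviation: GI50, concentration required for 50% inhibition of growth. TGI is the concentration that stops growth completely.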

`Cc1cccc(C(C)(C)C)c1NC(=O)C(=O)Cc1nc2ccccc2s1`: the TGI in the assay on TK-10 renal, in the assay with KM12 colon, in the assay on A549 NSCLC, in the assay on U251 CNS, with OVCAR-8 ovarian and in the assay with OVCAR-5 ovarian was above 100 µM in each case. Besides, the TGI with HCT-116 colon and with UO-31 renal was above 100 µM throughout.

In the case of `O=C1c2ccccc2-c2c1c1cc3c(cc1c(=O)n2CCCCl)OCO3`, the GI50 in the assay with TK-10 renal is 30.9 µM; in the assay on KM12 colon, 24.1 µM; in the assay with A549 NSCLC, 36.3 µM; with U251 CNS, 22.8 µM; in the assay with OVCAR-8 ovarian it was 22.6 µM; in the assay on HCT-116 colon, 17.7 µM. For the same compound, the GI50 with UO-31 renal is above 100 µM. The TGI in the assay with TK-10 renal is 75.2 µM; in the assay with KM12 colon, above 100 µM; in the assay with A549 NSCLC it was above 100 µM; in the assay with U251 CNS, 67.4 µM; in the assay on OVCAR-8 ovarian it was above 100 µM; in the assay with HCT-116 colon it was 90.1 µM. In the assay with UO-31 renal, this compound yielded a TGI above 100 µM.

Regarding `O=C(/C=C(\[O-])c1ccccc1)CCCCCCC(=O)/C=C(\[O-])c1ccccc1.O=C(/C=C(\[O-])c1ccccc1)CCCCCCC(=O)/C=C(\[O-])c1ccccc1.O=C(/C=C(\[O-])c1ccccc1)CCCCCCC(=O)/C=C(\[O-])c1ccccc1.[La+3].[La+3]`, the GI50 with TK-10 renal, in the assay with A549 NSCLC, with U251 CNS, with OVCAR-8 ovarian, in the assay on OVCAR-5 ovarian and in the assay with RXF 393 renal was above 50 µM each time. For the same compound, the GI50 with HCT-116 colon and with UO-31 renal was above 50 µM each time. Besides, the TGI with TK-10 renal, in the assay on A549 NSCLC, in the assay on U251 CNS, in the assay on OVCAR-8 ovarian, in the assay on OVCAR-5 ovarian and in the assay with RXF 393 renal was above 50 µM each time. In addition, the TGI in the assay with HCT-116 colon and with UO-31 renal was above 50 µM throughout.

In the case of `CC1CCC[P+](Cc2ccccc2)(c2ccccc2)CC1` (stereo unspecified), the TGI in the assay with TK-10 renal, with A549 NSCLC, in the assay on U251 CNS, in the assay on OVCAR-8 ovarian, in the assay on OVCAR-5 ovarian and with RXF 393 renal was above 100 µM throughout. Moreover, the TGI in the assay with UO-31 renal is above 100 µM.

For the compound `C[Si](C)(C)c1ccc(CC2(Cc3ccc([Si](C)(C)C)cc3)CCNC2)cc1`, the TGI with TK-10 renal was determined as 35.5 µM; with KM12 colon it was 3.62 µM; in the assay with A549 NSCLC, 5.22 µM; in the assay with U251 CNS it was 3.02 µM; in the assay on OVCAR-8 ovarian, 3.35 µM; in the assay with OVCAR-5 ovarian it was 15.4 µM. The values for the TGI in the assay on RXF 393 renal, in the assay on HCT-116 colon and in the assay with UO-31 renal were 3.14 µM, 3.17 µM and 5.9 µM, respectively.

Turning to `CCCNC(=O)OCc1c(COC(=O)NCCC)c(-c2ccc(Cl)c(Cl)c2)n2c1CCC2`, the TGI with TK-10 renal stood at 18.9 µM; with KM12 colon, 28.5 µM; in the assay with A549 NSCLC, 33.2 µM; in the assay on U251 CNS, 28.9 µM; with OVCAR-8 ovarian, 16.9 µM; in the assay with OVCAR-5 ovarian, 20.4 µM. The figures for the TGI with RXF 393 renal, in the assay with HCT-116 colon and in the assay with UO-31 renal were 9.35 µM, 17.7 µM and 12.6 µM, respectively.

As to `NNC(=O)c1cnn(-c2ccnc3c(C(F)(F)F)cccc23)c1N`, the GI50 in the assay on TK-10 renal, in the assay with KM12 colon, in the assay with A549 NSCLC, with U251 CNS, in the assay with OVCAR-8 ovarian and with OVCAR-5 ovarian was above 100 µM in each case. Moreover, the GI50 in the assay on RXF 393 renal, in the assay with HCT-116 colon and with UO-31 renal was above 100 µM each time. The TGI with TK-10 renal, in the assay on KM12 colon, with A549 NSCLC, in the assay on U251 CNS, with OVCAR-8 ovarian and in the assay on OVCAR-5 ovarian was above 100 µM in each case. Further, the TGI with RXF 393 renal, with HCT-116 colon and with UO-31 renal was above 100 µM each time.

Turning to `C[C@]12CCC(=O)C=C1CC[C@@H]1C2CC[C@]2(C)NC(=O)C(C#N)CC12` (stereo partly specified), the TGI in the assay with TK-10 renal, in the assay with A549 NSCLC, in the assay with U251 CNS, in the assay on OVCAR-8 ovarian, in the assay on OVCAR-5 ovarian and with RXF 393 renal was above 100 µM each time. Moreover, the TGI in the assay on HCT-116 colon and with UO-31 renal was above 100 µM in each case.

Take `Cn1c(-c2nonc2N)nc2cnccc21`: the GI50 in the assay on TK-10 renal was 11.3 µM; in the assay on KM12 colon, above 25 µM; in the assay on A549 NSCLC it was above 25 µM; in the assay with U251 CNS, above 25 µM; with OVCAR-8 ovarian it was above 25 µM; with OVCAR-5 ovarian, above 25 µM. Also, the GI50 is above 20.6 µM in the assay with RXF 393 renal, above 25 µM with HCT-116 colon and above 17.8 µM in the assay on UO-31 renal. The TGI with TK-10 renal, in the assay with KM12 colon, with A549 NSCLC, with U251 CNS, in the assay with OVCAR-8 ovarian and in the assay on OVCAR-5 ovarian was above 25 µM in each case. The TGI with RXF 393 renal, with HCT-116 colon and in the assay on UO-31 renal was above 25 µM each time.

For the compound `O=C(O)c1cc(S(=O)(=O)N=NC=C2c3ccccc3N(O)c3ccccc32)ccc1O`, the TGI in the assay with TK-10 renal is 50 µM; in the assay with KM12 colon it was above 100 µM; in the assay on A549 NSCLC it was above 100 µM; in the assay with U251 CNS, above 100 µM; in the assay with OVCAR-8 ovarian, above 100 µM; in the assay with OVCAR-5 ovarian, above 100 µM. For the same compound, the TGI in the assay on HCT-116 colon amounted to 27.9 µM; in the assay on UO-31 renal, 49.5 µM.

With `O=C1NC(=O)C2C(=O)NC(=O)C1C2(c1ccccc1)c1ccc(Cl)cc1` (stereo unspecified), the TGI in the assay with TK-10 renal, with KM12 colon, in the assay on A549 NSCLC, in the assay on OVCAR-8 ovarian, with OVCAR-5 ovarian and with RXF 393 renal was above 100 µM each time. In the assay on UO-31 renal, this compound registered a TGI above 100 µM.

With `CC1=CCCC(OC(N)=O)C1` (stereo unspecified), the TGI in the assay with TK-10 renal, with KM12 colon, with A549 NSCLC, with U251 CNS, in the assay on OVCAR-8 ovarian and in the assay on OVCAR-5 ovarian was above 100 µM each time. For the same compound, the TGI with RXF 393 renal, with HCT-116 colon and with UO-31 renal was above 100 µM throughout.

Regarding `CC1=C(CCCOC(=O)NCCCl)C2=C(C)C3(CC3)[C@@](C)(O)C(=O)C2=C1`, the GI50 with TK-10 renal was 3.55 µM; with KM12 colon, 10.5 µM; with A549 NSCLC it was 3.42 µM; in the assay with U251 CNS it was 3.97 µM; with OVCAR-8 ovarian it was 3.4 µM; with OVCAR-5 ovarian, 3.13 µM. The results for the GI50 with HCT-116 colon and with UO-31 renal were 2.96 µM and 2.02 µM, respectively. Further, the TGI in the assay with TK-10 renal is above 100 µM; with KM12 colon, 88.2 µM; in the assay on A549 NSCLC it was above 100 µM; in the assay on U251 CNS it was above 100 µM; with OVCAR-8 ovarian, above 100 µM; with OVCAR-5 ovarian, above 100 µM. Further, the TGI was above 100 µM in the assay with HCT-116 colon and 5.76 µM in the assay on UO-31 renal.

Regarding `COC(=O)c1c(OC)cccc1C(=O)O`, the TGI with TK-10 renal, with KM12 colon, with A549 NSCLC, with U251 CNS, in the assay with OVCAR-8 ovarian and in the assay with OVCAR-5 ovarian was above 100 µM throughout. Also, the TGI in the assay on RXF 393 renal, with HCT-116 colon and with UO-31 renal was above 100 µM in each case.

For `COc1ccc(N=Cc2cc(OC)c(OC)c(OC)c2)cc1`, the TGI with TK-10 renal, with KM12 colon, in the assay on A549 NSCLC, in the assay on U251 CNS, with OVCAR-8 ovarian and in the assay on OVCAR-5 ovarian was above 100 µM each time. The TGI with RXF 393 renal, with HCT-116 colon and in the assay on UO-31 renal was above 100 µM each time.

Regarding `O=C(N/N=C/c1cccc(O)c1O)N/N=C/c1cccc(O)c1O`, the TGI in the assay with TK-10 renal is above 100 µM; with KM12 colon it was above 100 µM; in the assay with A549 NSCLC, above 100 µM; with U251 CNS, above 100 µM; with OVCAR-8 ovarian it was above 100 µM; with OVCAR-5 ovarian it was 59 µM. The values for the TGI in the assay on RXF 393 renal, with HCT-116 colon and in the assay on UO-31 renal were 86.4 µM, 39.8 µM and 36.8 µM, respectively.

As to `O=C(Nc1ccccc1[N+](=O)[O-])c1ccccc1`, the TGI in the assay on TK-10 renal, with KM12 colon, with A549 NSCLC, in the assay on U251 CNS, with OVCAR-8 ovarian and with OVCAR-5 ovarian was above 100 µM each time. The TGI with RXF 393 renal, with HCT-116 colon and in the assay on UO-31 renal was above 100 µM in each case.

With `O=C1CC[C@H]2CNC(=O)C[C@H]2C1`, the TGI with TK-10 renal, with KM12 colon, in the assay on A549 NSCLC, in the assay on U251 CNS, in the assay with OVCAR-8 ovarian and with RXF 393 renal was above 100 µM throughout. The TGI with HCT-116 colon and in the assay on UO-31 renal was above 100 µM throughout.
